Laboratory results as given in patent US12350288B2, “Inducing caspase activity” (Dow Global Technologies LLC, priority 2019, dated 2025).

System: HT-29 cells (human colon; colorectal adenocarcinoma)
Experimental: HT-29 (ATCC® HTB-38™) cells (which contained approximately 1×10^6 cells per mL) were initiated and seeded into a T-25 flask containing McCoy's 5A and fetal bovine serum (10% (v/v)). […] The cells were grown in a humidified incubator (SANYO INCT-16-CMT; MCO-19AIC (UV)) maintained at 37° C. and 5% CO2. Then, the cells were rinsed with 1× Dulbecco's Phosphate-Buffered Saline and sub-cultured in T-75 flasks 1 to 3 times per week using 1× Trypsin-EDTA, applied for ≤5 minutes; enzymatic action of the trypsin-EDTA was stopped by adding complete growth medium to the detached cells. Then, upon reaching 80 to 90% confluency the cells were split into the following split ratio ranges: 1:5 to 1:16. Subculture and growth expansion activities were recorded, such as passage number, % confluency, % viability (only on experimental set-up day), and cell morphology throughout all phases. The cells were maintained in log-phase growth.
Cell culture plating was performed as follows. A cell suspension from a single 80 to 90% confluent T-75 flask was harvested with trypsin-EDTA and complete growth medium. To obtain cell concentration and viability, cell counts were obtained using a COUNTESS automated cell counter (INVITROGEN C10227; CNTR-7-CMT) in which 2 chambers of each slide were provided with 10 μL each of 1:1, 0.4% trypan-blue dye (INVITROGEN T10282) and cell suspension. […]

Poly(ethylene glycol) methyl ether tosylate
viability: ≥ 70%
